Source: Sander's compilation of Henry's law constants (doi:10.1021/je960218u)

Test: Henry solubility constant Hcp at 298.15 K (mol/(m3 Pa))
Settings: reference: Shiu and Mackay (1997)
For `c1cc2c3c(cccc3c1)CC2` [acenaphthene], the “Henry solubility constant Hcp” value was 0.062.
In the case of `Clc1cccc(Cl)c1Cl` [1,2,3-trichlorobenzene], the “Henry solubility constant Hcp” value is reported as 0.0079.
For `c1ccc2ccccc2c1` [naphthalene], the “Henry solubility constant Hcp” value was 0.022.
In the case of `Clc1ccc2ccccc2c1` [2-chloronaphthalene], the “Henry solubility constant Hcp” value is reported as 0.03.
For `c1ccc2c(c1)Cc1ccccc1-2` [2,3-benzindene], the “Henry solubility constant Hcp” value was 0.1.
With `CC(C)CO` [2-methyl-1-propanol] the “Henry solubility constant Hcp” value was 0.37.
For `c1ccc2c(c1)ccc1ccccc12` [phenanthrene], the “Henry solubility constant Hcp” value was 0.28.
For `CCCCCC(C)=O` [2-heptanone], the “Henry solubility constant Hcp” value was 0.058.
With `CCCC(C)=O` [2-pentanone] the “Henry solubility constant Hcp” value was 0.12.
For `Cc1cccc2ccccc12` [1-methylnaphthalene], the “Henry solubility constant Hcp” value was 0.041.
For `CC(=O)c1ccccc1` [1-phenylethanone], the “Henry solubility constant Hcp” value was 0.93.
For `c1ccc(-c2ccccc2)cc1` [biphenyl], the “Henry solubility constant Hcp” value was 0.032.
With `c1ccc2cc3ccccc3cc2c1` [anthracene] the “Henry solubility constant Hcp” value was 0.13.
For `Clc1cc(Cl)c(Cl)c(Cl)c1` [1,2,3,5-tetrachlorobenzene], the “Henry solubility constant Hcp” value was 0.0063.
With `Cc1cccc2c(C)cccc12` [1,5-dimethylnaphthalene] the “Henry solubility constant Hcp” value was 0.028.
In the case of `Clc1cccc2ccccc12` [1-chloronaphthalene], the “Henry solubility constant Hcp” value is reported as 0.028.
For `Clc1ccc(Cl)cc1` [1,4-dichlorobenzene], the “Henry solubility constant Hcp” value was 0.0041.
With `Clc1ccccc1` [chlorobenzene] the “Henry solubility constant Hcp” value was 0.0032.
With `Brc1ccccc1` [bromobenzene] the “Henry solubility constant Hcp” value was 0.004.
For `CCCCCCCO` [1-heptanol], the “Henry solubility constant Hcp” value was 0.18.
